Patent US8765730B2 (Hoffmann-La Roche Inc, priority 2010, dated 2014)
Where a name gives a salt, the structure may show the parent alone.

The compounds below were run against T1, human GPBAR1 receptor (Homo sapiens, UniProt Q8TDU6) (assay: functional cAMP assay in CHO-dhfr(minus) cells expressing human GPBAR1 receptors). Conditions: functional cAMP assay, 30 min at 30° C., read-out: human EC50.
T1 construct: expressed in transfected cells
T1 sequence (Q8TDU6 1-330): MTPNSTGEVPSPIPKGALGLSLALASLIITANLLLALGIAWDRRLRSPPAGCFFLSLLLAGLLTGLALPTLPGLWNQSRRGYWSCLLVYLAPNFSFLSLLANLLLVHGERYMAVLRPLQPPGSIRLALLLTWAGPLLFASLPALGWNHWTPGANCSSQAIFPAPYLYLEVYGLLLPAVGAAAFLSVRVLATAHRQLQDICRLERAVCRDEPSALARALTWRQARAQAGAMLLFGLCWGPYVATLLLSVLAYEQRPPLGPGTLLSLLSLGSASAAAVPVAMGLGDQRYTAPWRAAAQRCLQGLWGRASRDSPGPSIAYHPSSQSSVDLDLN
Format: cell-based
In short: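 Agonist cAMP read-out: stable GPBAR1 CHO-dhfr− clone, 30 min compound exposure at 30° C following 30 min IBMX (1 mM) preincubation in Krebs Ringer bicarbonate. Time-resolved energy-transfer detection gives EC50; parental CHO cells serve as counter-screen.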

| EC50 [µM] | SMILES |
| --- | --- |
| 0.005 | COC1CN(c2ccc([C@@H](C/C(=N\O)c3ccnc(C)c3)c3ccccc3C)cc2)C1 [Example 270, (E,R)-3-[4-(3-Methoxy-azetidin-1-yl)-phenyl]-1-(2-methyl-pyridin-4-yl)-3-o-tolyl-propan-1-one oxime] |

Same assay, conditions: human EC50, functional cAMP assay, 30 min at 30° C.

| EC50 [µM] | SMILES |
| --- | --- |
| 0.011 | Cc1ccccc1C(C/C(=N\O)c1ccncc1)c1ccc(-c2cncnc2)cc1 (single isomer, unassigned; (-)) [Example 36, (−)-(E)-1-pyridin-4-yl-3-(4-pyrimidin-5-yl-phenyl)-3-o-tolyl-propan-1-one oxime] |
| 0.009 | Cc1cc(F)ccc1[C@H](C/C(=N\O)c1ccc(=O)n(C)c1)c1ccc(-c2ccc(S(N)(=O)=O)cc2)cc1 (single isomer, unassigned) [Example 406, (−)-4′-[1-(4-Fluoro-2-methyl-phenyl)-3-[(E)-hydroxyimino]-3-(1-methyl-6-oxo-1,6-dihydro-pyridin-3-yl)-propyl]-biphenyl-4-sulfonic acid amide] |
| 1.2 | Cc1ccccc1C(C/C(=N\O)c1ccc(=O)n(C)c1)c1ccc(-c2ccccc2C(=O)O)cc1F (stereo not shown) [Example 236, 3′-Fluoro-4′-[3-[(E)-hydroxyimino]-3-(1-methyl-6-oxo-1,6-dihydro-pyridin-3-yl)-1-o-tolyl-propyl]-biphenyl-2-carboxylic acid] |
| 0.193 | Cn1cc(/C(CC(c2ccc(O)cc2)c2ccc(Cl)cc2F)=N/O)ccc1=O (stereo not shown) [Example 318, (E)-5-(3-(4-Chloro-2-fluorophenyl)-1-(hydroxyimino)-3-(4-hydroxyphenyl)propyl)-1-methylpyridin-2(1H)-one] |
| 0.024 | Cc1ccccc1C(C/C(=N\O)c1ccncc1)c1ccc(N2CCN(S(C)(=O)=O)CC2)cc1 (stereo not shown) [Example 136, (E)-3-[4-(4-Methanesulfonyl-piperazin-1-yl)-phenyl]-1-pyridin-4-yl-3-o-tolyl-propan-1-one oxime] |
| 0.218 | COC(=O)c1ccc(-c2ccc(C(CC(=NO)c3ccnc(C)c3)c3ccccc3C)cc2)cc1 (mixture of isomers) [Example 74, 4′-[3-[Hydroxyimino]-3-(2-methyl-pyridin-4-yl)-1-o-tolyl-propyl]-biphenyl-4-carboxylic acid methyl ester] |
| 0.156 | CCN(CC)c1ccc(C(CC(=NO)c2ccncc2)c2ccccc2C)cc1 (racemic) [Example 42, 3-(4-Diethylamino-phenyl)-1-pyridin-4-yl-3-o-tolyl-propan-1-one oxime] |
| 0.255 | Cc1cc(C(CC(c2cccc(C#CCO)c2)c2ccccc2C)=NO)ccn1 (racemic) [Example 106, 3-[3-(3-Hydroxy-prop-1-ynyl)-phenyl]-1-(2-methyl-pyridin-4-yl)-3-o-tolyl-propan-1-one oxime] |
| 2.37 | Cc1ccccc1[C@H](C/C(=N\O)c1ccc(=O)n(C)c1)c1ccc(C2CCNCC2)cc1 [Example 507, (R,E)-5-(1-(Hydroxyimino)-3-(4-(piperidin-4-yl)phenyl)-3-o-tolylpropyl)-1-methylpyridin-2(1H)-one] |
| 0.381 | CCOC(=O)c1cccc(-c2ccc(C(CC(=NO)c3ccnc(C)c3)c3ccccc3C)cc2)c1 (racemic) [Example 78, 4′-[3-[Hydroxyimino]-3-(2-methyl-pyridin-4-yl)-1-o-tolyl-propyl]-biphenyl-3-carboxylic acid ethyl ester] |
| 0.011 | Cc1cc(Cl)ccc1C(C/C(=N\O)c1ccc(=O)n(C)c1)c1ccc(OCCO)c(F)c1 (stereo not shown) [Example 328, 5-{3-(4-Chloro-2-methyl-phenyl)-3-[3-fluoro-4-(2-hydroxy-ethoxy)-phenyl]-1-[(E)-hydroxyimino]-propyl}-1-methyl-1H-pyridin-2-one] |
| 0.036 | CC(=O)N1CCC(c2ccc([C@@H](C/C(=N\O)c3ccnc(C)c3)c3ccc(Cl)cc3C)cc2)CC1 [Example 511, (R,E)-1-(4-(4-(1-(4-Chloro-2-methylphenyl)-3-(hydroxyimino)-3-(2-methylpyridin-4-yl)propyl)phenyl)piperidin-1-yl)ethanone] |
| 0.001 | Cc1cc(/C(C[C@H](c2ccc(-c3cncnc3)cc2)c2ccccc2C)=N/O)ccn1 [Example 143, (E,R)-1-(2-Methyl-pyridin-4-yl)-3-(4-pyrimidin-5-yl-phenyl)-3-o-tolyl-propan-1-one oxime] |
| 0.05 | Cc1cc(/C(C[C@@H](c2ccc(N3CCOCC3)cc2)c2ccccc2C)=N/O)ccn1 [Example 381, (S,E)-1-(2-Methylpyridin-4-yl)-3-(4-morpholinophenyl)-3-o-tolylpropan-1-one oxime] |
| 2 | Cc1cc(Cl)ccc1[C@H](C/C(Cc1ccccn1)=N\O)c1ccc(Br)cc1 [Example 362, (E,R)-4-(4-bromo-phenyl)-4-(4-chloro-2-methyl-phenyl)-1-pyridin-2-yl-butan-2-one oxime] |
| 0.268 | Cc1ccccc1[C@H](C/C(=N\O)c1ccc(=O)n(C)c1)c1ccc(-c2nnn[nH]2)cc1 [Example 500, (R,E)-5-(3-(4-(1H-Tetrazol-5-yl)phenyl)-1-(hydroxyimino)-3-o-tolylpropyl)-1-methyl-pyridin-2(1H)-one, sodium salt] |
| 0.168 | Cc1cc(Cl)ccc1[C@H](C/C(=N\O)c1cc[n+]([O-])c(C)c1)c1ccc(Br)cc1 [Example 384, (R,E)-4-(3-(4-Bromophenyl)-3-(4-chloro-2-methylphenyl)-1-(hydroxyimino)propyl)-2-methylpyridine 1-oxide] |
| 0.06 | COC(=O)CNC(=O)c1ccc(-c2ccc(C(C/C(=N\O)c3ccc(=O)n(C)c3)c3ccc(Cl)cc3C)cc2)cc1 (single isomer, unassigned; (+)) [Example 254, (+)-({4′-[1-(4-chloro-2-methyl-phenyl)-3-[(E)-hydroxyimino]-3-(1-methyl-6-oxo-1,6-dihydro-pyridin-3-yl)-propyl]-biphenyl-4-carbonyl}-amino)-acetic acid methyl ester] |
| 0.221 | O/N=C(\CC(c1ccccc1)c1ccccc1)c1cc(Cl)nc(Cl)c1 [Example 72, (E)-1-(2,6-Dichloro-pyridin-4-yl)-3,3-diphenyl-propan-1-one oxime] |
| 3.59 | Cc1ccccc1C(C/C(=N\O)c1ccc(=O)n(C)c1)c1ccc(Oc2ccc(C(=O)O)c(F)c2)cc1F (stereo not shown) [Example 222, 2-Fluoro-4-{3-fluoro-4-[3-[(E)-hydroxyimino]-3-(1-methyl-6-oxo-1,6-dihydro-pyridin-3-yl)-1-o-tolyl-propyl]-phenoxy}-benzoic acid] |
| 0.053 | Cc1cc(/C(C[C@@H](c2ccccc2)c2ccc(Cl)cc2C)=N/O)ccn1 [Example 390, (S)-3-(4-Chloro-2-methyl-phenyl)-1-(2-methyl-pyridin-4-yl)-3-phenyl-propan-1-one oxime] |
| 0.582 | Cc1ccccc1[C@@H](C/C(=N\O)c1ccc(=O)n(C)c1)c1ccc([C@H]2CC[C@@H](C(=O)O)CC2)cc1 [Example 489, cis-4-(4-((S,E)-3-(hydroxyimino)-3-(1-methyl-6-oxo-1,6-dihydropyridin-3-yl)-1-o-tolylpropyl)phenyl)cyclohexanecarboxylic acid] |
| 2.73 | Cc1ccccc1C(CC(=NO)c1ccncc1)c1ccc(C(=O)O)cc1 (racemic) [Example 70, 4-{3-[Hydroxyimino]-3-pyridin-4-yl-1-o-tolyl-propyl}-benzoic acid] |
| 0.117 | ON=C(CC(c1ccccc1)c1ccccc1)c1cc(Cl)ncc1F (racemic) [Example 55, 1-(2-Chloro-5-fluoro-pyridin-4-yl)-3,3-diphenyl-propan-1-one oxime] |
| 0.104 | Cc1cc(Cl)ccc1C(C/C(=N\O)c1ccc(=O)n(C)c1)c1ccc(Oc2cccc(C(=O)O)c2)c(F)c1 (stereo not shown) [Example 325, 3-{4-[1-(4-Chloro-2-methyl-phenyl)-3-[(E)-hydroxyimino]-3-(1-methyl-6-oxo-1,6-dihydro-pyridin-3-yl)-propyl]-2-fluoro-phenoxy}-benzoic acid] |
| 0.326 | Cn1cc(/C(CC(c2ccc(C(=O)NC[C@@H](O)CO)cc2)c2ccc(Cl)cc2F)=N/O)ccc1=O (stereo partly drawn) [Example 312, 4-((E)-1-(4-Chloro-2-fluorophenyl)-3-(hydroxyimino)-3-(1-methyl-6-oxo-1,6-dihydropyridin-3-yl)propyl)-N—((R)-2,3-dihydroxypropyl)benzamide] |
| 0.005 | Cc1cc(F)ccc1[C@H](C/C(=N\O)c1ccc(=O)n(C)c1)c1ccc(Br)cc1 (single isomer, unassigned) [Example 404, (−)-5-{3-(4-Bromo-phenyl)-3-(4-fluoro-2-methyl-phenyl)-1-[(E)-hydroxyimino]-propyl}-1-methyl-1H-pyridin-2-one] |
| 0.029 | Cc1cc(/C(CC(c2ccc(-c3ccc(C(=O)O)cc3)cc2)c2ccc(Cl)cc2C)=N/O)ccn1 (single isomer, unassigned) [Example 396, (−)-4′-[1-(4-Chloro-2-methyl-phenyl)-3-[(E)-hydroxyimino]-3-(2-methyl-pyridin-4-yl)-propyl]-biphenyl-4-carboxylic acid; compound with triethylamine 1:0.7] |
| 0.132 | Cc1cc(/C(CC(c2ccc(C(=O)N3CCOCC3)cc2)c2ccc(F)cc2F)=N/O)ccn1 (stereo not shown) [Example 438, 3-(2,4-Difluoro-phenyl)-1-(2-methyl-pyridin-4-yl)-3-[4-(morpholine-4-carbonyl)-phenyl]-propan-1-one oxime] |
| 0.364 | Cn1cc(/C(CC(c2ccc(-c3ccc(CC#N)cc3)cc2)c2ccc(Cl)cc2F)=N/O)ccc1=O (stereo not shown) [Example 459, {4′-[1-(4-Chloro-2-fluoro-phenyl)-3-[(E)-hydroxyimino]-3-(1-methyl-6-oxo-1,6-dihydro-pyridin-3-yl)-propyl]-biphenyl-4-yl}-acetonitrile] |
